Molecules are shown by their SMILES. Read-outs that look alike come from different tables or passages of the source.

From paper PMC10932284 (International Journal of Molecular Sciences, 2024) come the findings set out here.

Assay [1] has as its system M. tuberculosis strain resistant to both rifampicin and isoniazid. It counts as cell-based, Mycobacterium tuberculosis. Conditions: for number of M. tuberculosis colonies/standard inoculum volume (0.2 mL): 28 days, 37 °C; for growth inhibition of mycobacteria (in words): both concentrations (1 and 2 µg/mL).
Assay [2] relates to M. tuberculosis strain susceptible to rifampicin and resistant to isoniazid. It counts as cell-based, Mycobacterium tuberculosis. The following applies: 28 days, 37 °C.
Setting [3] is: 1 µg/mL in Lowenstein Jensen medium.
The mark [4] stands for this setting: 2 µg/mL in Lowenstein Jensen medium.

As for `O=C1Nc2ccc(F)cc2S(=O)(=O)N1` [2h], the “number of M. tuberculosis colonies/standard inoculum volume (0.2 mL)” value in assay [1] (setting [3]), in assay [1] (setting [4]), in assay [2] (setting [3]) and in assay [2] (setting [4]) was 0 colonies in each case. The “growth inhibition of mycobacteria (in words)” value (“growth inhibition” below) in assay [1] is recorded as “inhibited”.
As for `CC(=O)/N=c1/sc(S(N)(=O)=O)nn1C` [MTZ, reference compound], the “number of M. tuberculosis colonies/standard inoculum volume (0.2 mL)” value in assay [1] (setting [3]), in assay [1] (setting [4]), in assay [2] (setting [3]) and in assay [2] (setting [4]) was 0 colonies in each case.
With `O=C1Nc2ccc(O)cc2S(=O)(=O)N1` [2t], the “number of M. tuberculosis colonies/standard inoculum volume (0.2 mL)” value in assay [1] (setting [3]), in assay [1] (setting [4]) and in assay [2] (setting [4]) was 0 colonies in each case. The “growth inhibition” value in assay [1] is given as “inhibited”.
Regarding `CC(=O)Nc1nnc(S(N)(=O)=O)s1` [AAZ, acetazolamide, reference compound], the “number of M. tuberculosis colonies/standard inoculum volume (0.2 mL)” value in assay [1] (setting [3]), in assay [1] (setting [4]), in assay [2] (setting [3]) and in assay [2] (setting [4]) was 0 colonies throughout.
As for `Cc1ccc2c(c1)S(=O)(=O)NC(=O)N2` [2c], the “number of M. tuberculosis colonies/standard inoculum volume (0.2 mL)” value in assay [1] (setting [3]), in assay [1] (setting [4]), in assay [2] (setting [3]) and in assay [2] (setting [4]) was 0 colonies in each case. Also, the “growth inhibition” value in assay [1] is “inhibited”.
Take `O=C1Nc2ccccc2S(=O)(=O)N1` [2a]: the “number of M. tuberculosis colonies/standard inoculum volume (0.2 mL)” value in assay [1] (setting [3]), in assay [1] (setting [4]), in assay [2] (setting [3]) and in assay [2] (setting [4]) was 0 colonies each time. In assay [1], the “growth inhibition” value is on record as “inhibited”.
Regarding `Cc1cc(C)c2c(c1)S(=O)(=O)NC(=O)N2` [2d], the “number of M. tuberculosis colonies/standard inoculum volume (0.2 mL)” value in assay [1] (setting [3]), in assay [1] (setting [4]), in assay [2] (setting [3]) and in assay [2] (setting [4]) was 0 colonies each time. Further, the “growth inhibition” value in assay [1] is recorded as “inhibited”.
